Measured values published in ChEMBL document CHEMBL6127114, “Discovery of Bis-imidazolecarboxamide Derivatives as Novel, Potent, and Selective TNIK Inhibitors for the Treatment of Idiopathic Pulmonary Fibrosis” (J Med Chem, 2024).
Values after ≈ are worked out from the molar mass of the structure shown.

Assays:
[1] = target: T1, TRAF2 and NCK-interacting protein kinase (Homo sapiens, UniProt Q9UKE5)
LX-2 [2] = assay: cells; settings: Homo sapiens
in vitro = settings: human, lx-2
LX-2 [3] = assay: cells; settings: Homo sapiens; remark: listed apart in the source
physchem = settings: buffer, pH 7.4
[4] = Metabolic stability in mouse liver microsomes assessed as intrinsic clearance preincubated for 60 mins followed by NADPH addition and measured after 5 to 60 mins by LC-MS/MS analysis; assay type: ADME, Microsome; settings: time 65-120 min, read-out: CLH
[5] = Metabolic stability in human liver microsomes assessed as intrinsic clearance preincubated for 60 mins followed by NADPH addition and measured after 5 to 60 mins by LC-MS/MS analysis; assay type: ADME, Microsome; settings: time 65-120 min, read-out: CLH
[6] = Apparent permeability in human Caco-2 cells; assay type: ADME, cell-based
Mus musculus [7] = assay: Anti-hepatic fibrosis activity in CCL4-induced male C57BL6/J mouse hepatic fibrosis model assessed as change in body weight at 3 mg/kg, po meausred after 2 weeks (reference value: -1.8%); assay type: functional
[8] = target: T2, Muscarinic acetylcholine receptor M1 (Homo sapiens, UniProt P11229); assay: Inhibition of human CHRM1 by Eurofins DiscoverX method
T2 sequence (P11229 whole entry): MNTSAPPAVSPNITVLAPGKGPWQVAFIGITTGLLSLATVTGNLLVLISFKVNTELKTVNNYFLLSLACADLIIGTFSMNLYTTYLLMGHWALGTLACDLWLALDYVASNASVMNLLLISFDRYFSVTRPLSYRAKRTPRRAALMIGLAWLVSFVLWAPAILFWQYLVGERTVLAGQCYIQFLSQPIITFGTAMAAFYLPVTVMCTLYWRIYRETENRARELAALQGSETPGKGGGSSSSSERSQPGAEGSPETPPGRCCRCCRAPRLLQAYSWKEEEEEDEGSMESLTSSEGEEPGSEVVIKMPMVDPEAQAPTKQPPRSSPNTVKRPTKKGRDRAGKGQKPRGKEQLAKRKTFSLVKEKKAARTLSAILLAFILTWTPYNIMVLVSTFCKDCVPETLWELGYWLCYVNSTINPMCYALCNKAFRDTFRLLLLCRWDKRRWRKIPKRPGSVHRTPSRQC

[9] = Inhibition of fibronectin-1 protein expression in human Primary bronchial epithelial cell; assay type: functional, cell-based
Mus musculus [10] = assay: Anti-hepatic fibrosis activity in CCL4-induced male C57BL6/J mouse hepatic fibrosis model assessed as change in body weight at 10 mg/kg, po meausred after 2 weeks (reference value: -1.8%); assay type: functional
[11] = target: T1, TRAF2 and NCK-interacting protein kinase; remark: listed apart in the source

T1 sequence (Q9UKE5 whole entry): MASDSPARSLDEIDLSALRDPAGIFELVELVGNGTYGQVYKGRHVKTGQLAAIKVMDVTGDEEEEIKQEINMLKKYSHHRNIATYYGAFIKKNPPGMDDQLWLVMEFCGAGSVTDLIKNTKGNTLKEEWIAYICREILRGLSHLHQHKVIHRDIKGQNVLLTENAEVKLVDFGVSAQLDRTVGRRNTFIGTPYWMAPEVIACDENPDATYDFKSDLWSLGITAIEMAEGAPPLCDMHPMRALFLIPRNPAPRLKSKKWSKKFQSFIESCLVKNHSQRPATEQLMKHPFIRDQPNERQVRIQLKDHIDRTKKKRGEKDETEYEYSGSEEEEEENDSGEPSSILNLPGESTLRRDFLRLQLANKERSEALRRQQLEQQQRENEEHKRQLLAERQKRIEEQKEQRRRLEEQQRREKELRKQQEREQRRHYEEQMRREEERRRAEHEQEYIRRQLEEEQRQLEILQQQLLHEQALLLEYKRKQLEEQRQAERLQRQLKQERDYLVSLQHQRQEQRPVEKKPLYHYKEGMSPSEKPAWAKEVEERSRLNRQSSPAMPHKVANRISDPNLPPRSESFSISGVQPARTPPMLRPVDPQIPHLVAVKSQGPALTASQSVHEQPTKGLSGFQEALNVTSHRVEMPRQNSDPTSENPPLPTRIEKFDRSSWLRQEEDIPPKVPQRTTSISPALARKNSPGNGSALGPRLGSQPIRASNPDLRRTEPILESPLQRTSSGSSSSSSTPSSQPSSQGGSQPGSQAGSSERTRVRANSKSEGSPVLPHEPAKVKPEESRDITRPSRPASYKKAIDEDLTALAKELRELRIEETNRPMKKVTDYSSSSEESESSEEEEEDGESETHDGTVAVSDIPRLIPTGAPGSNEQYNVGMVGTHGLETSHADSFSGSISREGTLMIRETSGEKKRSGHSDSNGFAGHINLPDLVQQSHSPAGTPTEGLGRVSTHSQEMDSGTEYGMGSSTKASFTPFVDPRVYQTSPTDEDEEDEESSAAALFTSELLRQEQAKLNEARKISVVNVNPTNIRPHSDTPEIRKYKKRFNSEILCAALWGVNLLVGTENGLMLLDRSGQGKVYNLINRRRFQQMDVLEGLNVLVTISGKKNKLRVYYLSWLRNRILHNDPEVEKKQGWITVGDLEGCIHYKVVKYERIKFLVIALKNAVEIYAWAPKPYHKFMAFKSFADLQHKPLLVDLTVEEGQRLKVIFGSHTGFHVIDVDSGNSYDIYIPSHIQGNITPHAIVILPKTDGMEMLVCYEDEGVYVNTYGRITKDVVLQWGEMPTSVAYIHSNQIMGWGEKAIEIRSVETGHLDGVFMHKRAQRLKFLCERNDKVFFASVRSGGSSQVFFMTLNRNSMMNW

| IC50 [1] [nM] | IC50 (LX-2 [2]) [nM] | IC50 at 72 h (in vitro) [nM] | IC50 (LX-2 [3]) [nM] | Structure (SMILES) | further results |
| --- | --- | --- | --- | --- | --- |
| 79.1 | 904 | > 100000 | 839 | CC(C)n1cnc(-c2ccc(F)cc2)c1-c1nc(C(=O)Nc2ccc(N(CCO)CCO)cc2)c[nH]1 | – |
| 18 | 71 | 12300 | 71 | CC1CN(c2ccc(NC(=O)c3c[nH]c(-c4c(-c5ccc(F)cc5)ncn4C(C)C)n3)cc2)CC(C)N1C (stereo not given) | – |
| 5.9 | – | – | – | CC(C)n1cnc(-c2ccc(F)cc2)c1-c1cccc(C(=O)Nc2ccc(N3CCN(C)CC3)cc2)n1 | solubility kinetic at 24 h (physchem): 105 µM (≈ 52.4 µg/mL); microsomal CLint [4]: 122 µL/min/mg; microsomal CLint [5]: 119 µL/min/mg |
| 149 | > 10000 | > 100000 | > 10000 | CC(C)n1cnc(-c2ccc(F)cc2)c1-c1nc(C(=O)Nc2ccc(C(=O)O)cc2)c[nH]1 | Papp [6]: 0.07 ×10⁻⁶ cm/s |
| 10.5 | – | – | – | CC(C)n1cnc(-c2ccc(F)cc2)c1-c1ccc(C(=O)Nc2ccc(N3CCN(C)CC3)cc2)o1 | solubility kinetic at 24 h (physchem): 40 µM (≈ 19.5 µg/mL); microsomal CLint [4]: > 150 µL/min/mg; microsomal CLint [5]: > 150 µL/min/mg |
| 40.2 | – | – | – | CC(C)n1cnc(-c2ccc(F)cc2)c1-c1ccc(C(=O)Nc2ccc(CCO)cc2)o1 | solubility kinetic at 24 h (physchem): < 2 µM; microsomal CLint [4]: > 150 µL/min/mg; microsomal CLint [5]: > 150 µL/min/mg |
| 42 | 125 | > 100000 | 519 | CC(C)n1cnc(-c2ccc(F)cc2)c1-c1nc(C(=O)Nc2ccc(N3CCN(CC(F)(F)F)CC3)cc2)c[nH]1 | – |
| 9.5 | 264 | > 100000 | 306 | CC(C)n1cnc(-c2ccc(F)cc2)c1-c1nc(C(=O)Nc2ccc(CCO)cc2)c[nH]1 | – |
| 47 | 713 | > 100000 | 898 | CC(C)n1cnc(-c2ccc(F)cc2)c1-c1nc(C(=O)Nc2ccc(N3CCN(C)C(=O)C3)cc2)c[nH]1 | – |
| 21.1 | 162 | > 100000 | 123 | CC(C)n1cnc(-c2ccc(F)cc2)c1-c1nc(C(=O)Nc2ccc(N3CCN(CCO)CC3)cc2)c[nH]1 | – |
| 51 | > 10000 | > 100000 | > 10000 | CC(C)n1cnc(-c2ccc(F)cc2)c1-c1nc(C(=O)Nc2ccc(CCCCC(=O)O)cc2)c[nH]1 | Papp [6]: 0.07 ×10⁻⁶ cm/s |
| – | – | – | – | CC(C)n1cnc(-c2ccc(F)cc2)c1-c1nc(C(=O)Nc2ccc(N3CCN(C)CC3)cc2)c[nH]1 | Activity (Mus musculus [7]): -0.671%; IC50 [8]: 8400 nM; IC50 [9]: 250 nM; Activity (Mus musculus [10]): 6.065% |
| 51 | – | – | – | CC(C)n1cnc(-c2ccc(F)c(F)c2)c1-c1nc(C(=O)Nc2ccc(N3CCN(C)CC3)cc2)c[nH]1 | – |
| 6 | 572 | > 100000 | 144 | CC(=O)N1CCN(c2ccc(NC(=O)c3c[nH]c(-c4c(-c5ccc(F)cc5)ncn4C(C)C)n3)cc2)CC1 | – |
| 5.7 | – | – | – | CC(C)n1cnc(-c2ccc(F)cc2)c1-c1cccc(C(=O)Nc2ccc(CCO)cc2)n1 | solubility kinetic at 24 h (physchem): < 2 µM; microsomal CLint [4]: 124 µL/min/mg; microsomal CLint [5]: 161 µL/min/mg |
| 10.6 | – | – | – | CC(C)n1cnc(-c2ccc(F)cc2)c1-c1nc(C(=O)Nc2ccc(N3CCN(S(N)(=O)=O)CC3)cc2)c[nH]1 | solubility kinetic at 24 h (physchem): < 2 µM |
| 199 | – | – | – | CC(C)n1cnc(-c2ccc(F)cc2)c1-c1nc(C(=O)Nc2ccc(N3CCN(C(N)=O)CC3)cc2)c[nH]1 | – |
| 46.3 | > 10000 | > 100000 | > 10000 | CC(C)n1cnc(-c2ccc(F)cc2)c1-c1nc(C(=O)Nc2ccc(CCC(=O)O)cc2)c[nH]1 | Papp [6]: 0.07 ×10⁻⁶ cm/s |
| 5.2 | – | – | – | CC(C)n1cnc(-c2ccc(F)cc2)c1-c1cccc(C(=O)Nc2ccc(N3CCN(CCO)CC3)cc2)n1 | solubility kinetic at 24 h (physchem): 5.3 µM (≈ 2.8 µg/mL); microsomal CLint [4]: 69.5 µL/min/mg; microsomal CLint [5]: 141 µL/min/mg |
| 11.1 | 65 | 40500 | 81 | CC(C)n1cnc(-c2ccc(F)cc2)c1-c1nc(C(=O)Nc2ccc(N3CCNCC3)cc2)c[nH]1 | – |
| 34.3 | > 10000 | > 100000 | 115 | CC(C)n1cnc(-c2ccc(F)cc2)c1-c1nc(C(=O)Nc2ccc(N3CC[N+](C)([O-])CC3)cc2)c[nH]1 | – |
| 5.7 | – | – | – | CC(C)n1cnc(-c2ccc(F)cc2)c1-c1cccc(C(=O)Nc2ccc(CCC(=O)O)cc2)n1 | solubility kinetic at 24 h (physchem): < 2 µM; microsomal CLint [4]: < 9.6 µL/min/mg; microsomal CLint [5]: < 9.6 µL/min/mg |
| 71.3 | – | – | – | CC(C)n1cnc(-c2ccc(Cl)cc2)c1-c1nc(C(=O)Nc2ccc(N3CCN(C)CC3)cc2)c[nH]1 | – |
| > 10000 | – | – | – | CC(C)n1cnc(-c2ccc(C(F)(F)F)cc2)c1-c1nc(C(=O)Nc2ccc(N3CCN(C)CC3)cc2)c[nH]1 | – |
| – | – | – | – | Cn1ccc2cc(-c3ccc4c(c3)SCCN(Cc3ccc(F)cc3)C4=O)cnc21 | IC50 [11]: 26 nM |

| Structure (SMILES) | IC50 [1] [nM] | IC50 (LX-2 [2]) [nM] | IC50 at 72 h (in vitro) [nM] | IC50 (LX-2 [3]) [nM] | further results |
| --- | --- | --- | --- | --- | --- |
| CC(C)n1cnc(-c2ccc(F)cc2)c1-c1nc(C(=O)Nc2ccc(N3CC4CCC(C3)N4C)cc2)c[nH]1 | 4 | 77 | 22600 | 42 | – |
